Experiments:
Type in all cases: cell-based, Human
[1] = tested on: HCT116 colon cancer cells; assay: Cell viability by MTT, HCT116; settings: 20 µM for 72 h, vs control
Experimental: The effect of compounds on cell viability was performed by measuring 3-[4,5-dimethylthiazol-2-yl]-2,5-diphenyltetrazolium bromide inner salt (MTT, Sigma-Aldrich) dye absorbance (solid tumor cells) or by quantization of ATP present in metabolically active cells using CellTiter-Glo® Luminescent (Promega, Fitchburg, Wisconsin, USA) (hematologic cells) following manifacturer's protocol. To evaluate the cell colony-forming ability, cell suspension from different samples was seeded into 60-mm Petri dishes. After 10 days, colonies were stained with 2% methylene blue in 95% ethanol and counted (1 colony > 50 cells). The surviving fractions were calculated as the ratio of absolute survival of the treated sample/survival of DMSO-treated control sample.
Figure 4 Analysis of the effect of IS20 and IS21 on cell viability, clonogenic ability and tumor sphere formation in cancer cells. […] (B) Representative images and quantification of clonogenic ability evaluated in M14 and H1299 cells treated with IS20 or IS21 (20 μM for 72 h). […] (C) Quantification of tumor sphere formation of M14 and H1299 cells treated with IS20 or IS21 (20 μM for 72 h). […] (A-C) Data are reported as mean ± SD of three independent experiments. p-values were calculated between control (Ctrl) and treated cells, ** p < 0.001 and *** p < 0.0001.

M14 cells [2] = assay: Western blot of PARP1 cleavage, M14; settings: 72 h
Experimental: (§1) Western blot analyses of total protein extracts were performed as previously described. Immunodetection was performed using antibodies directed to poly (ADP-ribose) polymerase (PARP; BD Biosciences San Diego, CA, USA), LC3B (Cell Signaling Technology, Danvers, MA), HSP72/73 (Calbiochem, EMD Biosciences, La Jolla, CA), Bcl-2 (SC-509, Santa Cruz Biotechnology Inc, Dallas, TX, USA), Bcl-xL (SC-271121, Santa Cruz Biotechnology Inc), Mcl-1 (SC-12756, Santa Cruz Biotechnology Inc) α-tubulin (Santa Cruz Biotechnology Inc) actin (Sigma-Aldrich, St. Louis, Missouri, USA). Anti-rabbit or anti-mouse immunoglobulin G-horseradish peroxidase-conjugated antibodies (Amersham Biosciences, Freiburg, Germany) were used as secondary antibody. Images were acquired by Image Lab Software (Bio-Rad, Hercules, CA, USA), using a ChemiDoc System instrument (Bio-Rad). The densitometric evaluation was performed using Image J software and normalized with relative controls.
(§2) Figure 5 Analysis of apoptosis induction by IS20 and IS21 in leukemia, melanoma and NSCLC cells. […] (A-F) Reported images are representative of two independent experiments with similar results. HSP72/73 or α-Tubulin are shown as loading and transferring control. (G) Flow cytometric quantification of cells in the subG1 peak of cell cycle distribution by propidium iodide staining in HL60 cell line treated with IS20 or IS21 (20 μM for 24 h) and in M14, H1299 and MDA-MB-231 cell lines treated with IS20 or IS21 (20 μM for 72 h). Data are reported as mean ± SD of three independent experiments. p-values were calculated between control (Ctrl) and treated cells, * p < 0.05. (H) Flow cytometric quantification of cells in the subG1 peak by propidium iodide staining in M14 and H1299 cell lines treated with IS20 or IS21 (20 μM, 72 h) in presence or absence of the pan caspase inhibitor z-VAD (50 μM). p-values were calculated between treated control (Ctrl) cells, # p < 0.01, ## p < 0.001 or between cells treated with IS20 or IS21 alone or in combination with z-VAD, * p < 0.05, ** p < 0.005. (G-H) Data are reported as mean of two (H) or three (G) experiments ± SD.

MDA-MB-231 cells = assay: Flow cytometry subG1 peak (PI staining), MDA-MB-231; settings: 20 µM for 72 h
Experimental: Flow cytometric analysis (BD Accuri™ C6, BD Biosciences) was performed to evaluate cell cycle distribution by propidium iodide (PI) staining, and cell viability by using the PI dye exclusion assay as previously reported.
as §2

H1299 cells = assay: Western blot of LC3B-I/LC3B-II (autophagy), H1299; settings: 72 h, increasing concentration
Experimental: as §1, with “Images were acquired by Image Lab Software (Bio-Rad, Hercules, CA, USA), using a ChemiDoc System instrument (Bio-Rad). The densitometric evaluation was performed using Image J software and normalized with relative controls.” left out
(§3) Figure 6 Analysis of autophagosome accumulation in M14 and H1299 cells after treatment with IS20 or IS21. […] Ratio of LC3B-II on LC3B-I levels, after normalization on HSP72/73, Actin or α-Tubulin, is quantified by densitometric analysis. (D) (Upper panels) Representative images and (lower panels) relative quantification of fluorescence microscopic analysis of LC3B puncta positive cells in M14 EGFP-LC3B and H1299 EGFP-LC3B transfected cells, treated with IS20 or IS21 (20 µM for 72h). […] Cells with more than 10 puncta were considered autophagy-positive. p-values were calculated between untreated (Ctrl) and treated cells, * p < 0.05.

M14 cells [3] = assay: Western blot of LC3B-I/LC3B-II (autophagy), M14; settings: 72 h
Experimental: as §1
as §3, with “IS21. Western blot analysis of LC3B-I and LC3B-II protein levels in (A) M14, and (B) H1299 cell lines untreated (Ctrl) or treated with IS20 or IS21 for 72 h at the indicated concentrations. (C) Western blot analysis of LC3B-I and LC3B-II levels in HL60 and U937 cell lines untreated (Ctrl) or treated with IS20 or IS21 (20 μM for 24 h). (A-C) Reported images are representative of two independent experiments with similar results. HSP72/73, Actin or α-Tubulin are shown as loading and transferring control.” for “IS21.”

| SMILES | cell viability HCT116 [1] | PARP1 cleavage, M14 (M14 cells [2]) | subG1 peak of cell cycle distribution, MDA-MB-231 (MDA-MB-231 cells) | ratio of LC3B-II on LC3B-I protein levels, H1299 (H1299 cells) | ratio of LC3B-II on LC3B-I / LC3B-II protein level, M14 (M14 cells [3]) |
| --- | --- | --- | --- | --- | --- |
| CCCCOc1ccc(C2/C(=C(\O)c3ccc4c(c3)CC(C)O4)C(=O)C(=O)N2c2nnc(SCc3ccc(Cl)cc3)s2)cc1OCC (stereo not shown) [IS20] | not significantly perturbed | cleavage of PARP1 | not evident | higher level | higher level |
| CCCCCOc1ccc(C2/C(=C(\O)c3ccc4c(c3)CC(C)O4)C(=O)C(=O)N2c2nnc(SCc3ccc(Cl)cc3)s2)cc1OCC (stereo not shown) [IS21] | not significantly perturbed | cleavage of PARP1 | not evident | higher level | higher level |

Source: paper PMC8899577, “Targeting the anti-apoptotic Bcl-2 family proteins: machine learning virtual screening and biological evaluation of new small molecules” (Theranostics, 2022)
